Assays:
[1] = target: HA-tagged human β2-adrenergic receptor (human) (UniProt P07550)
[2] = target: human vasopressin V2 receptor (V2R) (Homo sapiens, UniProt P30518); assay: arrestin-GFP localization (Fgrains) assay in U20S-V2R/ArrGFP cells, arginine vasopressin stimulated; type: cell-based; details: 100 nM arginine vasopressin
Experimental: The assay was carried out using two different “double stable” human osteosarcoma cell (U20S) lines. […] The other cell line (U20S-V2R/ArrGFP) stably expressed V2R and the same arrestin-GFP conjugate.
The two cell lines (U20S-β2AR/ArrGFP and U20S-V2R/ArrGFP) were separately plated at 7000 cells/well on 384 well glass bottom plates. Two plates of U20S-β2AR/ArrGFP cells were prepared and two plates of U20S-V2R/ArrGFP cells were prepared.
Growth media was replaced with serum free media (i.e., Eagle's minimum essential medium (EMEM) buffered with 10 mM HEPES (N-2-Hydroxyethylpiperazine-N′-2-ethanesulfonic acid)) 24 hours after plating of the cells.
Each test compound was solvated using 100% dimethyl sulfoxide (DMSO). Multiple solutions of each compound were prepared at varying concentrations for testing in separate wells of each plate. If needed, the solutions were sonicated and heated to increase solubility. After preparation of the compound solutions, they were shielded from light.
Each of the solutions of varying concentrations of the fifteen compounds was added to a well on each of the four plates. The β2AR RT and V2R RT plates were incubated for 30 minutes at room temperature and atmospheric CO2.
Agonist was then added to each well. […] The β2AR RT and V2R RT plates were incubated for 30 minutes at room temperature and atmospheric CO2.
Each assay was then terminated using 1% paraformaldehyde containing 1 μM DRAQ5 DNA probe to fix the cells. The cells were analyzed using a pre-production model (alpha unit) of the IN Cell Analyzer 3000 (Amersham Biosciences), which is a line scanning, confocal imaging system. The IN Cell Analyzer 3000 was used to quantitate the localization of the arrestin-GFP conjugate for the cells in each well using the Amersham Biosciences granularity analysis GRNO algorithm. This algorithm finds the nucleus of cells and then dilates out a specified distance in which fluorescent spots or “grains” of arrestin-GFP localization are identified based on size and fluorescent intensity. The average of the fluorescent intensity of the identified grains per cell in an acquired image (i.e., Fgrains) was determined for each well on the plates.
The graphs for each compound as well as for the propanolol control are illustrated in FIGS. 7–22.
The curve-fitting program allowed the minimum and maximum values as well as the slope and EC50 values to vary rather than fixing the values to specified or collected values.

[3] = target: HA-tagged human β2-adrenergic receptor (β2AR) (Homo sapiens, UniProt P07550); assay: arrestin-GFP localization (Fgrains) assay in U20S-β2AR/ArrGFP cells, isoproterenol stimulated; details: 100 nM isoproterenol
Experimental: Each of the fifteen compounds was separately screened for GPCR desensitization inhibitory activity against HA-tagged human β2-adrenergic receptor (β2AR) and against human vasopressin V2 receptor (V2R). In addition, the effects of temperature and carbon dioxide (CO2) were evaluated with respect to each compound.

β2AR and V2R = details: inhibitory activity shown for both β2AR and V2R
Text: Each of the fifteen compounds was separately screened for GPCR desensitization inhibitory activity against HA-tagged human β2-adrenergic receptor (β2AR) and against human vasopressin V2 receptor (V2R).
As indicated by the Fgrains values for the cells in the Basal and Stimulated control wells, the Fgrains value determined by the IN Cell Analyzer 3000 in this example was functionally a measure of the average extent of desensitization in the cells in each well.

[4] = V2R CO2 plate: 37° C., 5% CO2/95% O2
[5] = V2R RT plate: room temperature, atmospheric CO2
[6] = B2AR CO2 plate: 37° C., 5% CO2/95% O2
[7] = B2AR RT plate: room temperature, atmospheric CO2

| Compound | EC50 [2, 4] [µM] | Max Rsp (change between fitted maximum and fitted minimum Fgrains) [2, 4] | Min (fitted minimum Fgrains) [2, 4] | pEC50 [2, 4] | slope of concentration-response curve [2, 4] | EC50 [2, 5] [µM] | Max Rsp (change between fitted maximum and fitted minimum Fgrains) [2, 5] | Min (fitted minimum Fgrains) [2, 5] | pEC50 [2, 5] | slope of concentration-response curve [2, 5] | EC50 [3, 6] [µM] | Max Rsp (change between fitted maximum and fitted minimum Fgrains) [3, 6] | Min (fitted minimum Fgrains) [3, 6] | pEC50 [3, 6] | slope of concentration-response curve [3, 6] | EC50 [3, 7] [µM] | Max Rsp (change between fitted maximum and fitted minimum Fgrains) [3, 7] | Min (fitted minimum Fgrains) [3, 7] | pEC50 [3, 7] | slope of concentration-response curve [3, 7] | other results |
| --- | --- | --- | --- | --- | --- | --- | --- | --- | --- | --- | --- | --- | --- | --- | --- | --- | --- | --- | --- | --- | --- |
| arrestin-GFP conjugate of the Renilla reniformis green fluorescent protein fused in frame to the carboxyl terminus of rat β-arrestin2 (from UniProt P29067) |  |  |  |  |  |  |  |  |  |  |  |  |  |  |  |  |  |  |  |  | Fgrains (average fluorescent intensity of identified grains of arrestin-GFP localization per cell), Stimulated against Basal control wells, B2AR CO2 plate [1]: 431 Fgrains |
| O=C1NC(=O)C(c2cn(CCCN3CCNCC3)c3ccccc23)=C1c1c[nH]c2ccccc12 [Bisindolylmaleimide VII] | 9.3 | 336 | 250 | 5.0 | 2.4 | 36.6 | 717 | −130 | 4.4 | 1.1 | 21.2 | 278 | 167 | 4.7 | 2.3 | 24.9 | 281 | 148 | 4.6 | 2.2 | indication of non-receptor-specific GPCR desensitization inhibitory activity (β2AR and V2R): non-receptor-specific GPCR desensitization inhibitory activity |
| Cn1cc(C2=C(c3cn(CCCN)c4ccccc34)C(=O)NC2=O)c2ccccc21 [RO-31-7549] | 2.7 | 357 | 240 | 5.6 | 1.0 | 3.3 | 320 | 250 | 5.5 | 1.5 | 9.4 | 243 | 193 | 5.0 | 1.2 | 31.1 | 423 | 4 | 4.5 | 0.8 | indication of non-receptor-specific GPCR desensitization inhibitory activity (β2AR and V2R): non-receptor-specific GPCR desensitization inhibitory activity |
| Bisindolylmaleimide VI | 24.6 | 499 | 94 | 4.6 | 0.8 | 18.3 | 696 | −118 | 4.7 | 1.2 | 12.7 | 270 | 170 | 4.9 | 2.4 | 9 | 210 | 213 | 5.0 | 4.4 | indication of non-receptor-specific GPCR desensitization inhibitory activity (β2AR and V2R): non-receptor-specific GPCR desensitization inhibitory activity |
